# From patent US8097722B2 (priority 2008, dated 2012)
# Assays:
# liver PMPMEase = type: biochemical, porcine
# brain PMPMEase = type: biochemical, porcine
# Note: test concentration or dose not given here.
smiles,measurement,setting,value
COP(=S)(OC)Oc1ccc(S(=O)(=O)N(C)C)cc1 [Famphur],Liver Mean (mean percent inhibition relative to the controls),liver PMPMEase,71%
same,Brain Mean (mean percent inhibition relative to the controls),brain PMPMEase,60%
COP(=S)(OC)Oc1ccc([N+](=O)[O-])c(C)c1 [Fenitrothion],Liver Mean (mean percent inhibition relative to the controls),liver PMPMEase,98%
same,Brain Mean (mean percent inhibition relative to the controls),brain PMPMEase,75%
CCOP(=S)(OCC)Oc1ccc([S+](C)[O-])cc1 (stereo not drawn) [Fensulfothion],Liver Mean (mean percent inhibition relative to the controls),liver PMPMEase,100%
same,Brain Mean (mean percent inhibition relative to the controls),brain PMPMEase,100%
COP(=S)(OC)Oc1ccc(SC)c(C)c1 [Fenthion],Liver Mean (mean percent inhibition relative to the controls),liver PMPMEase,40%
same,Brain Mean (mean percent inhibition relative to the controls),brain PMPMEase,17%
COP(=S)(OC)Oc1cc(Cl)c(I)cc1Cl [Jodfenphos],Liver Mean (mean percent inhibition relative to the controls),liver PMPMEase,96%
same,Brain Mean (mean percent inhibition relative to the controls),brain PMPMEase,69%
COP(=S)(Oc1cc(Cl)c(Br)cc1Cl)c1ccccc1 (stereo not drawn) [Leptophos],Liver Mean (mean percent inhibition relative to the controls),liver PMPMEase,60%
same,Brain Mean (mean percent inhibition relative to the controls),brain PMPMEase,29%
CCOC(=O)CC(SP(=O)(OC)OC)C(=O)OCC (stereo not drawn) [Malaoxon],Liver Mean (mean percent inhibition relative to the controls),liver PMPMEase,87%
same,Brain Mean (mean percent inhibition relative to the controls),brain PMPMEase,51%
CCOC(=O)CC(SP(=S)(OC)OC)C(=O)OCC (stereo not drawn) [Malathion],Liver Mean (mean percent inhibition relative to the controls),liver PMPMEase,53%
same,Brain Mean (mean percent inhibition relative to the controls),brain PMPMEase,51%
COC(=O)/C(C)=C/OP(=S)(OC)OC [Methacrifos],Liver Mean (mean percent inhibition relative to the controls),liver PMPMEase,87%
same,Brain Mean (mean percent inhibition relative to the controls),brain PMPMEase,61%
COP(N)(=O)SC (stereo not drawn) [Methamidophos],Liver Mean (mean percent inhibition relative to the controls),liver PMPMEase,45%
same,Brain Mean (mean percent inhibition relative to the controls),brain PMPMEase,24%
COc1nn(CSP(=S)(OC)OC)c(=O)s1 [Methidathion],Liver Mean (mean percent inhibition relative to the controls),liver PMPMEase,78%
same,Brain Mean (mean percent inhibition relative to the controls),brain PMPMEase,56%
COP(=S)(OC)Oc1ccc([N+](=O)[O-])cc1 [Methyl-Parathion],Liver Mean (mean percent inhibition relative to the controls),liver PMPMEase,100%
same,Brain Mean (mean percent inhibition relative to the controls),brain PMPMEase,75%
CNC(=O)CSP(=O)(OC)OC [Omethoate],Liver Mean (mean percent inhibition relative to the controls),liver PMPMEase,12%
same,Brain Mean (mean percent inhibition relative to the controls),brain PMPMEase,33%
CCOC(=O)C(SP(=S)(OC)OC)c1ccccc1 (stereo not drawn) [Phenthoate],Liver Mean (mean percent inhibition relative to the controls),liver PMPMEase,96%
same,Brain Mean (mean percent inhibition relative to the controls),brain PMPMEase,55%
CCOP(=S)(OCC)SCn1c(=O)oc2cc(Cl)ccc21 [Phosalone],Liver Mean (mean percent inhibition relative to the controls),liver PMPMEase,79%
same,Brain Mean (mean percent inhibition relative to the controls),brain PMPMEase,62%
COC(=O)/C=C(\C)OP(=O)(OC)OC [Phosdrin],Liver Mean (mean percent inhibition relative to the controls),liver PMPMEase,70%
same,Brain Mean (mean percent inhibition relative to the controls),brain PMPMEase,67%
CCN(CC)C(=O)/C(Cl)=C(/C)OP(=O)(OC)OC [Phosphamidon],Liver Mean (mean percent inhibition relative to the controls),liver PMPMEase,69%
same,Brain Mean (mean percent inhibition relative to the controls),brain PMPMEase,53%
CCN(CC)c1nc(C)cc(OP(=S)(OC)OC)n1 [Pirimiphos-M],Liver Mean (mean percent inhibition relative to the controls),liver PMPMEase,79%
same,Brain Mean (mean percent inhibition relative to the controls),brain PMPMEase,42%
CCCSP(=O)(OCC)Oc1ccc(Br)cc1Cl (stereo not drawn) [Profenofos],Liver Mean (mean percent inhibition relative to the controls),liver PMPMEase,97%
same,Brain Mean (mean percent inhibition relative to the controls),brain PMPMEase,81%
CCCSP(=O)(OCC)Oc1cnn(-c2ccc(Cl)cc2)c1 (stereo not drawn) [Pyraclofos],Liver Mean (mean percent inhibition relative to the controls),liver PMPMEase,95%
same,Brain Mean (mean percent inhibition relative to the controls),brain PMPMEase,82%
COP(=S)(OC)Oc1cc(Cl)c(Cl)cc1Cl [Ronnel],Liver Mean (mean percent inhibition relative to the controls),liver PMPMEase,93%
same,Brain Mean (mean percent inhibition relative to the controls),brain PMPMEase,45%
CNP(=S)(OC)O/C(C)=C/C(=O)OC(C)C (stereo not drawn) [Safrotin],Liver Mean (mean percent inhibition relative to the controls),liver PMPMEase,54%
same,Brain Mean (mean percent inhibition relative to the controls),brain PMPMEase,52%
CCOP(=S)(OCC)OP(=S)(OCC)OCC [Sulfotep],Liver Mean (mean percent inhibition relative to the controls),liver PMPMEase,97%
same,Brain Mean (mean percent inhibition relative to the controls),brain PMPMEase,47%
CCOP(=S)(OCC)SCSC(C)(C)C [Terbufos],Liver Mean (mean percent inhibition relative to the controls),liver PMPMEase,72%
same,Brain Mean (mean percent inhibition relative to the controls),brain PMPMEase,100%
